Assays:
mice [1] = assay: Anti-oxotremorine activity in mice (hypothermia induced by oxotremorine); type: in vivo; conditions: oxotremorine 0.5 mg.kg^-1 i.p.
Experimental: Anti-oxotremorine activity in mice
At time 0, the mice receive oxotremorine (0.5 mg.kg^-1) by intraperitoneal administration; after 30 minutes, either distilled water or the medicament according to the invention, obtained in accordance with Example I, is administered to the mice intraperitoneally or orally.
The mice are then observed and the trembling is rated from 0 to 3 as a function of its intensity, every 10 minutes for 30 minutes. Moreover, the existence of peripheral symptoms (tears, hypersialosis and defections) is observed for 2 hours, in the presence or absence of trembling. The rectal temperature is measured every 30 minutes for 2 hours, after administration of oxotremorine.

mice [2] = assay: Anti-reserpine activity in mice (reserpine hypothermia); type: in vivo; conditions: reserpine 2.5 mg.kg^-1 i.p. 4 h before
Experimental: Anti-reserpine activity in mice
At time 0, the mice receive reserpine (2.5 mg.kg^-1) by intraperitoneal administration.
After 4 hours, when the hypothermia is significant (30 to 31°C.), the substance to be studied is administered intraperitoneally or orally. The rectal temperature is measured, using a probe, carrying a thermoelectric couple, inserted to a constant depth, every 30 minutes for 2 hours.

[3] = 32 mg/kg intraperitoneal, 60 min
[4] = 32 mg/kg intraperitoneal, 90 min
[5] = 32 mg/kg intraperitoneal, 120 min

SMILES: CC1CC(c2ccc(Cl)cc2)C(c2ccccc2)C(=O)O1 (stereo not drawn) [Example I, trans-4-(4'-chlorophenyl)-6-methyl-3-phenyl-3,4,5,6-tetrahydropyrone-2]
- Rectal temperatures °C. (mice [1]; [3]): 31.2 ± 0.73 °C
- Rectal temperatures °C. (mice [1]; [4]): 32.2 ± 0.85 °C
- Rectal temperatures °C. (mice [1]; [5]): 33.2 ± 1.2 °C
- Rectal temperatures °C. (mice [1]; 32 mg/kg oral, 30 min): 33.0 ± 0.60 °C
- Rectal temperatures °C. (mice [1]; 32 mg/kg oral, 60 min): 32.7 ± 0.63 °C
- Rectal temperatures °C. (mice [1]; 32 mg/kg oral, 90 min): 32.8 ± 0.62 °C
- Rectal temperatures °C. (mice [1]; 32 mg/kg oral, 120 min): 33.7 ± 0.95 °C
- Rectal temperatures °C. (mice [1]; 64 mg/kg intraperitoneal, 30 min): 34.0 ± 0.87 °C
- Rectal temperatures °C. (mice [1]; 64 mg/kg intraperitoneal, 60 min): 33.0 ± 1.2 °C
- Rectal temperatures °C. (mice [1]; 64 mg/kg intraperitoneal, 90 min): 33.7 ± 1.15 °C
- Rectal temperatures °C. (mice [1]; 64 mg/kg intraperitoneal, 120 min): 34.5 ± 1.0 °C
- Rectal temperatures °C. (mice [1]; 64 mg/kg oral, 30 min): 32.2 ± 0.32 °C
- Rectal temperatures °C. (mice [1]; 64 mg/kg oral, 60 min): 31.7 ± 0.52 °C
- Rectal temperatures °C. (mice [1]; 64 mg/kg oral, 90 min): 32.8 ± 0.73 °C
- Rectal temperatures °C. (mice [1]; 64 mg/kg oral, 120 min): 34.1 ± 0.62 °C
- Rectal temperatures °C. (mice [1]; 128 mg/kg oral, 30 min): 34.8 ± 0.80 °C
- Rectal temperatures °C. (mice [1]; 128 mg/kg oral, 60 min): 34.9 ± 0.59 °C
- Rectal temperatures °C. (mice [1]; 128 mg/kg oral, 90 min): 36.2 ± 0.82 °C
- Rectal temperatures °C. (mice [1]; 128 mg/kg oral, 120 min): 37.1 ± 0.77 °C
- Rectal temperatures °C. (mice [1]; 256 mg/kg oral, 30 min): 32.4 ± 0.63 °C
- Rectal temperatures °C. (mice [1]; 256 mg/kg oral, 60 min): 31.3 ± 0.73 °C
- Rectal temperatures °C. (mice [1]; 256 mg/kg oral, 90 min): 32.4 ± 1.07 °C
- Rectal temperatures °C. (mice [1]; 256 mg/kg oral, 120 min): 33.9 ± 1.30 °C
- Rectal temperatures °C. ± SD (mice [2]; Table IIa, 4 mg/kg oral, 30 min): 30.6 ± 0.39 °C
- Rectal temperatures °C. ± SD (mice [2]; Table IIa, 4 mg/kg oral, 60 min): 30.6 ± 0.45 °C
- Rectal temperatures °C. ± SD (mice [2]; Table IIa, 4 mg/kg oral, 90 min): 30.7 ± 0.59 °C
- Rectal temperatures °C. ± SD (mice [2]; Table IIa, 4 mg/kg oral, 120 min): 30.4 ± 0.67 °C
- Rectal temperatures °C. ± SD (mice [2]; Table IIa, 8 mg/kg oral, 30 min): 31.1 ± 0.36 °C
- Rectal temperatures °C. ± SD (mice [2]; Table IIa, 8 mg/kg oral, 60 min): 31.4 ± 0.56 °C
- Rectal temperatures °C. ± SD (mice [2]; Table IIa, 8 mg/kg oral, 90 min): 31.5 ± 0.57 °C
- Rectal temperatures °C. ± SD (mice [2]; Table IIa, 8 mg/kg oral, 120 min): 31.3 ± 0.56 °C
- Rectal temperatures °C. ± SD (mice [2]; Table IIa, 16 mg/kg oral, 30 min): 31.4 ± 0.41 °C
- Rectal temperatures °C. ± SD (mice [2]; Table IIa, 16 mg/kg oral, 60 min): 32.6 ± 0.56 °C
- Rectal temperatures °C. ± SD (mice [2]; Table IIa, 16 mg/kg oral, 90 min): 32.8 ± 0.53 °C
- Rectal temperatures °C. ± SD (mice [2]; Table IIa, 16 mg/kg oral, 120 min): 32.8 ± 0.45 °C
- Rectal temperatures °C. ± SD (mice [2]; Table IIa, 32 mg/kg oral, 30 min): 31.4 ± 0.31 °C
- Rectal temperatures °C. ± SD (mice [2]; Table IIa, 32 mg/kg oral, 60 min): 32.6 ± 0.44 °C
- Rectal temperatures °C. ± SD (mice [2]; Table IIa, 32 mg/kg oral, 90 min): 32.9 ± 0.41 °C
- Rectal temperatures °C. ± SD (mice [2]; Table IIa, 32 mg/kg oral, 120 min): 32.8 ± 0.38 °C
- Rectal temperatures °C. ± SD (mice [2]; Table IIa, 64 mg/kg oral, 30 min): 33.8 ± 0.58 °C
- Rectal temperatures °C. ± SD (mice [2]; Table IIa, 64 mg/kg oral, 60 min): 34.5 ± 0.33 °C
- Rectal temperatures °C. ± SD (mice [2]; Table IIa, 64 mg/kg oral, 90 min): 34.4 ± 0.39 °C
- Rectal temperatures °C. ± SD (mice [2]; Table IIa, 64 mg/kg oral, 120 min): 34.4 ± 0.35 °C
- Rectal temperatures °C. ± SD (mice [2]; Table IIa, 128 mg/kg oral, 30 min): 33.1 ± 0.56 °C
- Rectal temperatures °C. ± SD (mice [2]; Table IIa, 128 mg/kg oral, 60 min): 34.1 ± 0.56 °C
- Rectal temperatures °C. ± SD (mice [2]; Table IIa, 128 mg/kg oral, 90 min): 34.3 ± 0.58 °C
- Rectal temperatures °C. ± SD (mice [2]; Table IIa, 128 mg/kg oral, 120 min): 34.2 ± 0.53 °C
- Rectal temperatures °C. ± SD (mice [2]; Table IIa, 256 mg/kg oral, 30 min): 33.5 ± 0.47 °C
- Rectal temperatures °C. ± SD (mice [2]; Table IIa, 256 mg/kg oral, 60 min): 35.2 ± 0.15 °C
- Rectal temperatures °C. ± SD (mice [2]; Table IIa, 256 mg/kg oral, 90 min): 35.3 ± 0.34 °C
- Rectal temperatures °C. ± SD (mice [2]; Table IIa, 256 mg/kg oral, 120 min): 35.1 ± 0.33 °C
- Rectal temperatures °C. ± SD (mice [2]; 4 mg/kg intraperitoneal, 30 min): 32.7 ± 0.56 °C
- Rectal temperatures °C. ± SD (mice [2]; 4 mg/kg intraperitoneal, 60 min): 33.7 ± 0.47 °C
- Rectal temperatures °C. ± SD (mice [2]; 4 mg/kg intraperitoneal, 90 min): 33.1 ± 0.39 °C
- Rectal temperatures °C. ± SD (mice [2]; 4 mg/kg intraperitoneal, 120 min): 32.2 ± 0.46 °C
- Rectal temperatures °C. ± SD (mice [2]; 8 mg/kg intraperitoneal, 30 min): 33.1 ± 0.32 °C
- Rectal temperatures °C. ± SD (mice [2]; 8 mg/kg intraperitoneal, 60 min): 34.1 ± 0.24 °C
- Rectal temperatures °C. ± SD (mice [2]; 8 mg/kg intraperitoneal, 90 min): 34.0 ± 0.38 °C
- Rectal temperatures °C. ± SD (mice [2]; 8 mg/kg intraperitoneal, 120 min): 33.6 ± 0.49 °C
- Rectal temperatures °C. ± SD (mice [2]; 16 mg/kg intraperitoneal, 30 min): 35.3 ± 0.51 °C
- Rectal temperatures °C. ± SD (mice [2]; 16 mg/kg intraperitoneal, 60 min): 35.7 ± 0.34 °C
- Rectal temperatures °C. ± SD (mice [2]; 16 mg/kg intraperitoneal, 90 min): 35.3 ± 0.37 °C
- Rectal temperatures °C. ± SD (mice [2]; 16 mg/kg intraperitoneal, 120 min): 35.0 ± 0.44 °C
- Rectal temperatures °C. ± SD (mice [2]; 32 mg/kg intraperitoneal, 30 min): 34.8 ± 0.48 °C
- Rectal temperatures °C. ± SD (mice [2]; [3]): 36.2 ± 0.38 °C
- Rectal temperatures °C. ± SD (mice [2]; [4]): 35.6 ± 0.38 °C
- Rectal temperatures °C. ± SD (mice [2]; [5]): 35.7 ± 0.37 °C

— patent US4287206A, “Halogen derivatives of 8-hydroxycarboxylic acids; the processes for their preparation and medicaments in which they are present” (priority 1978, dated 1981)
